In ChEMBL document CHEMBL1687760, “Secondary integrase resistance mutations found in HIV-1 minority quasispecies in integrase therapy-naive patients have little or no effect on susceptibility to integrase inhibitors” (Antimicrob Agents Chemother, 2010):

How the values were obtained:
[1] = system: Human immunodeficiency virus 1; assay: Antiviral activity against Human immunodeficiency virus 1 3B infected in human MT4 cells assessed as inhibition of virus induced cytopathic effect; format: functional, organism-based
[2] = system: Human immunodeficiency virus 1; assay: Antiviral activity against Human immunodeficiency virus 1 clone 15 harboring integrase S17N, I84I, T124N, T125A, M154I, S195C mutant gene relative to wild type HIV1; format: functional
[3] = system: Human immunodeficiency virus 1; assay: Antiviral activity against Human immunodeficiency virus 1 3B harboring integrase L74M mutant infected in human MT4 cells assessed as inhibition of virus induced cytopathic effect relative to wild type HIV1; format: functional
[4] = system: Human immunodeficiency virus 1; assay: Antiviral activity against Human immunodeficiency virus 1 3B harboring integrase T97A mutant infected in human MT4 cells assessed as inhibition of virus induced cytopathic effect relative to wild type HIV1; format: functional
[5] = system: Human immunodeficiency virus 1; assay: Antiviral activity against Human immunodeficiency virus 1 clone 13 harboring integrase S17N, T124N, T125A, G140S, M154I, S195C mutant gene relative to wild type HIV1; format: functional
[6] = system: Human immunodeficiency virus 1; assay: Antiviral activity against Human immunodeficiency virus 1 clone 16 harboring integrase S17N, T124N, T125A, M154I, S195C, V201I mutant gene relative to wild type HIV1; format: functional
[7] = system: Human immunodeficiency virus 1; assay: Antiviral activity against Human immunodeficiency virus 1 clone 18 harboring integrase S17N, I84I, T124N, T125A, M154I, S195C, V201I, S230G mutant gene relative to wild type HIV1; format: functional
[8] = system: Human immunodeficiency virus 1; assay: Antiviral activity against Human immunodeficiency virus 1 clone 13 harboring integrase R20K, A23V, T124N, G193E, V201I, T206S, I268V, I220V mutant gene relative to wild type HIV1; format: functional
[9] = system: Human immunodeficiency virus 1; assay: Antiviral activity against Human immunodeficiency virus 1 3B harboring integrase G140S mutant infected in human MT4 cells assessed as inhibition of virus induced cytopathic effect relative to wild type HIV1; format: functional
[10] = system: Human immunodeficiency virus 1; assay: Antiviral activity against Human immunodeficiency virus 1 clone 2 harboring integrase S17N, I84I, T124N, T125A, M154I, E157K, S195C mutant gene relative to wild type HIV1; format: functional
[11] = system: Human immunodeficiency virus 1; assay: Antiviral activity against Human immunodeficiency virus 1 3B harboring integrase L68V mutant infected in human MT4 cells assessed as inhibition of virus induced cytopathic effect relative to wild type HIV1; format: functional
[12] = system: Human immunodeficiency virus 1; assay: Antiviral activity against Human immunodeficiency virus 1 3B harboring integrase M154I mutant infected in human MT4 cells assessed as inhibition of virus induced cytopathic effect relative to wild type HIV1; format: functional
[13] = system: Human immunodeficiency virus 1; assay: Antiviral activity against Human immunodeficiency virus 1 3B harboring integrase V165I mutant infected in human MT4 cells assessed as inhibition of virus induced cytopathic effect relative to wild type HIV1; format: functional
[14] = system: Human immunodeficiency virus 1; assay: Antiviral activity against Human immunodeficiency virus 1 clone 9 harboring integrase S17N, I84I, T124N, T125A, M154I, A175T, S195C mutant gene relative to wild type HIV1; format: functional
[15] = system: Human immunodeficiency virus 1; assay: Antiviral activity against Human immunodeficiency virus 1 clone 1 harboring integrase E11D, S17T, L45V, M50I, M50T, I72V, L74I, K111T, S119G, T125A relative to wild type HIV1; format: functional
[16] = system: Human immunodeficiency virus 1; assay: Antiviral activity against Human immunodeficiency virus 1 clone 19 harboring integrase R20K, A23V, G70E, T124N, I141V, G193E, V201I, T206S, I220V mutant gene relative to wild type HIV1; format: functional
[17] = system: Human immunodeficiency virus 1; assay: Antiviral activity against Human immunodeficiency virus 1 clone 50_2 harboring integrase R20K, A23V, E92G, T124N, I141V, G193E, V201I, T206S, I220V, D279G infected in human MT4 cells assessed as inhibition of virus induced cytopathic effect relative to wild type HIV1; format: functional
[18] = system: Human immunodeficiency virus 1; assay: Antiviral activity against Human immunodeficiency virus 1 3B harboring integrase T66I mutant infected in human MT4 cells assessed as inhibition of virus induced cytopathic effect relative to wild type HIV1; format: functional
[19] = system: Human immunodeficiency virus 1; assay: Antiviral activity against Human immunodeficiency virus 1 clone 15_12 harboring integrase Y143R site-directed mutation relative to wild type HIV1; format: functional
[20] = system: Human immunodeficiency virus 1; assay: Antiviral activity against Human immunodeficiency virus 1 clone 5 harboring integrase E11D, S17T, S39G, L45V, M50I, I72V, L74I, K111T, S119G, T125A relative to wild type HIV1; format: functional
[21] = system: Human immunodeficiency virus 1; assay: Antiviral activity against Human immunodeficiency virus 1 clone 4 harboring integrase R20K, A23V, T124N, I141V, G193E, V201I, T206S, I220V, D279G mutant gene relative to wild type HIV1; format: functional
[22] = system: Human immunodeficiency virus 1; assay: Antiviral activity against Human immunodeficiency virus 1 clone 15_19 harboring integrase E11D, S17T, L45V, M50T, I72V, L74I, T97A, K111T, S119G, T125A infected in human MT4 cells assessed as inhibition of virus induced cytopathic effect relative to wild type HIV1; format: functional
[23] = system: Human immunodeficiency virus 1; assay: Antiviral activity against Human immunodeficiency virus 1 3B harboring integrase I72V mutant infected in human MT4 cells assessed as inhibition of virus induced cytopathic effect relative to wild type HIV1; format: functional
[24] = system: Human immunodeficiency virus 1; assay: Antiviral activity against Human immunodeficiency virus 1 clone 15_7 harboring integrase T97A mutant and T97A, Y143R site-directed mutation relative to wild type HIV1; format: functional
[25] = system: Human immunodeficiency virus 1; assay: Antiviral activity against Human immunodeficiency virus 1 3B harboring integrase E92Q mutant infected in human MT4 cells assessed as inhibition of virus induced cytopathic effect relative to wild type HIV1; format: functional
[26] = system: Human immunodeficiency virus 1; assay: Antiviral activity against Human immunodeficiency virus 1 clone 16 harboring integrase R20K, A23V, M50I, T124N, G193E, V201I, T206S, I220V, D279G mutant gene relative to wild type HIV1; format: functional
[27] = system: Human immunodeficiency virus 1; assay: Antiviral activity against Human immunodeficiency virus 1 clone 12 harboring integrase E11D, S17T, L45V, M50T, I72V, L74I, K111T, S119G, T125A relative to wild type HIV1; format: functional
[28] = system: Human immunodeficiency virus 1; assay: Antiviral activity against Human immunodeficiency virus 1 3B harboring integrase K156N mutant infected in human MT4 cells assessed as inhibition of virus induced cytopathic effect relative to wild type HIV1; format: functional
[29] = system: Human immunodeficiency virus 1; assay: Antiviral activity against Human immunodeficiency virus 1 clone 15_19 harboring integrase T97A mutant and T97A, Y143R site-directed mutation relative to wild type HIV1; format: functional
[30] = system: Human immunodeficiency virus 1; assay: Antiviral activity against Human immunodeficiency virus 1 clone 18_13 harboring integrase S17N, T124N, T125A, G140S, M154I, S195C infected in human MT4 cells assessed as inhibition of virus induced cytopathic effect relative to wild type HIV1; format: functional
[31] = system: Human immunodeficiency virus 1; assay: Antiviral activity against Human immunodeficiency virus 1 3B harboring integrase E92G mutant infected in human MT4 cells assessed as inhibition of virus induced cytopathic effect relative to wild type HIV1; format: functional
[32] = system: Human immunodeficiency virus 1; assay: Antiviral activity against Human immunodeficiency virus 1 clone 15_7 harboring integrase E11D, S17T, L45V, M50T, I72V, L74I, T97A, K111T, S119G, T125A infected in human MT4 cells assessed as inhibition of virus induced cytopathic effect relative to wild type HIV1; format: functional

## Cc1nnc(C(=O)NC(C)(C)c2nc(C(=O)NCc3ccc(F)cc3)c(O)c(=O)n2C)o1 [RALTEGRAVIR]
[1]
  EC50: 6.1 nM
[2]
  fold change (FC): 0.7
[3]
  fold change (FC): 0.9
[4]
  fold change (FC): 1.6
[5]
  fold change (FC): 2.4
[6]
  fold change (FC): 1.3
[7]
  fold change (FC): 1.3
[8]
  fold change (FC): 0.8
[9]
  fold change (FC): 2.4
[10]
  fold change (FC): 1.1
[11]
  fold change (FC): 0.4
[12]
  fold change (FC): 0.8
[13]
  fold change (FC): 0.7
[14]
  fold change (FC): 1.1
[15]
  fold change (FC): 1.7
[16]
  fold change (FC): 1.2
[17]
  fold change (FC): 1.8
[18]
  fold change (FC): 0.8
[19]
  fold change (FC): 13.1
[20]
  fold change (FC): 0.7
[21]
  fold change (FC): 0.2
[22]
  fold change (FC): 1.7
[23]
  fold change (FC): 0.9
[24]
  fold change (FC): 91.6
[25]
  fold change (FC): 3.8
[26]
  fold change (FC): 0.8
[27]
  fold change (FC): 1.1
[28]
  fold change (FC): 0.4
[29]
  fold change (FC): 88.2
[30]
  fold change (FC): 2.4
[31]
  fold change (FC): 1.8
[32]
  fold change (FC): 1.5

## COc1cc2c(cc1Cc1cccc(Cl)c1F)c(=O)c(C(=O)O)cn2[C@H](CO)C(C)C [ELVITEGRAVIR]
[1]
  EC50: 11.6 nM
[2]
  fold change (FC): 0.6
[3]
  fold change (FC): 0.7
[4]
  fold change (FC): 2.6
[5]
  fold change (FC): 5.6
[6]
  fold change (FC): 1
[7]
  fold change (FC): 0.8
[8]
  fold change (FC): 0.8
[9]
  fold change (FC): 5.6
[10]
  fold change (FC): 1.1
[11]
  fold change (FC): 1.1
[12]
  fold change (FC): 1
[13]
  fold change (FC): 0.8
[14]
  fold change (FC): 1.3
[15]
  fold change (FC): 1.4
[16]
  fold change (FC): 1.1
[17]
  fold change (FC): 13
[18]
  fold change (FC): 10.5
[19]
  fold change (FC): 4.2
[20]
  fold change (FC): 0.3
[21]
  fold change (FC): 0.7
[22]
  fold change (FC): 2.5
[23]
  fold change (FC): 0.8
[24]
  fold change (FC): 14.6
[25]
  fold change (FC): 20.8
[26]
  fold change (FC): 0.7
[27]
  fold change (FC): 1
[28]
  fold change (FC): 0.7
[29]
  fold change (FC): 9.4
[30]
  fold change (FC): 5.6
[31]
  fold change (FC): 13
[32]
  fold change (FC): 2.7
